These are literature values, as cited in patent US12116371B2, “Substituted pyridines as irreversible inhibitors of menin-MLL interaction” (BIOMEA FUSION, INC., priority 2018, dated 2024).

Bounds are passed on as bounds.

This data set has as its target T1, menin-MLL protein-protein interaction (Homo sapiens, UniProt O00255).
T1 sequence (O00255 1-610): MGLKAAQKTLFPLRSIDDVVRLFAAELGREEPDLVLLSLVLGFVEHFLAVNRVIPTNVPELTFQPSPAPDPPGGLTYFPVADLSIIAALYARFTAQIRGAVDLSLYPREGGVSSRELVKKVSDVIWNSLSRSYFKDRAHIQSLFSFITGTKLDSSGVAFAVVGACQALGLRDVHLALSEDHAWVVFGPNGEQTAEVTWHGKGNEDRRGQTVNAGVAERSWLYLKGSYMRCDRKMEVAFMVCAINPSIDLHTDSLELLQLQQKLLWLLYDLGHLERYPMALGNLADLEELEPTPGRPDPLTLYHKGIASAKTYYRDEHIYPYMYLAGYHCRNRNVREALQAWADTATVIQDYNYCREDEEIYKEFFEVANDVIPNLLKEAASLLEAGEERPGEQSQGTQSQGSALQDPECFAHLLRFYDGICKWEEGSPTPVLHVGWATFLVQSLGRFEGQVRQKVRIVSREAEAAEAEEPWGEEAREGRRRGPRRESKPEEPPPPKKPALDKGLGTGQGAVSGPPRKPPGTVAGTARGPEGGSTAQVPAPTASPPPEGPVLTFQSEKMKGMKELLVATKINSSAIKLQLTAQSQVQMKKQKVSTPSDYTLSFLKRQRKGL
Conditions: S. Xu et al. Angewandte Chemie; cited from earlier work.

As to `COC(=O)N[C@H]1CCC[C@@H]1[C@](C#N)(c1cccc(F)c1)C1CCN(CC2CN(c3ccc(S(=O)(=O)C4CN(C(=O)/C=C/CN(C)C)C4)cc3)C2)CC1` [Compound M-525], the “potency relative to the corresponding reversible inhibitors” value was more than 30 times.
